Consider 25 molecules from patent US20030013883A1, “Tropane analogs binding to monoamine transporters” (priority 2000, published 2003).

Where two headings read alike, the source gives them in different places.

The target of data set [1] is T1, norepinephrine transporter (NET) (Rattus norvegicus, UniProt Q63380).
T1 construct: from tissue; host or cells: rat cerebral cortex
Kind of data set: Radioligand binding to norepinephrine transporter, [3H]nisoxetine, rat cerebral cortex homogenate. The source says:
(§1) 30: 89-92, 1990; Andersen, P. H., J. Neurochem. 48:1887-1896, 1987).

Data set [2] concerns the target dopamine transporter (DAT) (Rattus norvegicus, UniProt P23977). In words: Radioligand binding to dopamine transporter, [3H]GBR-12935, rat corpus striatum homogenate.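 Further: displacement read as filter-bound tritium by liquid scintillation counting, roughly 1 mg wet tissue per tube, IC50 from fitted concentration-inhibition curves.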
Experimental: For DAT assays, corpus striatum tissue from rat forebrain was rapidly dissected on ice, pooled, weighed, and homogenized at 30 mg/mL in cold DAT buffer (50 mM Tris citrate, pH 7.4, 120 mM NaCl, 4 mM MgCl2) and stored at −70° C. The pellet was suspended in the assay buffer to provide the equivalent of about 1 mg of wet weight per assay tube.
L=400 pM) and 1.0 μM GBR-12909 (Research Biochemicals International, Natick, Mass.) as blank (Kula, N. S. et al., Neuropharmacology.
Assay tubes were incubated at room temperature for 120 min (SERT) or on ice for 180 min (NET) or 45 min (DAT). Labeled tissue samples were recovered in a Brandel Cell Harvester on glass fiber filter sheets saturated with 0.3% (v/v) aqueous polyethyleneimine, washed with ice-cold 0.9% NaCl, and counted for tritium in a liquid scintillation counter. Concentration-inhibition curves were computer-fit to determine IC50±SEM and converted to Ki values in nM from the Cheng -Prusoff relationship Ki=IC50/(1+[L]/Kd).
In data set [3] the target is T2, serotonin transporter (SERT) (Rattus norvegicus, UniProt P31652).
T2 construct: For SERT and NET assays, rat cerebral cortex was homogenized in cold SERT assay buffer; from tissue; host or cells: rat cerebral cortex
Kind of data set: Radioligand binding to serotonin transporter, [3H]paroxetine, rat cerebral cortex homogenate. The conditions noted are these: for Selectivity for SERT: ratio of Ki for NET or DAT to that for SERT (values match DAT/SERT), larger number is more selective for SERT.
From the text: as §1

[4] abbreviates: rat cerebral cortex membranes, [3H]nisoxetine 600 pM, on ice 180 min, Ki from IC50 by Cheng-Prusoff, read-out: NET (Ki).
Where [5] appears, read: read-out: DAT (Ki), rat corpus striatum membranes, [3H]GBR-12935 400 pM, on ice 45 min, Ki from IC50 by Cheng-Prusoff.
The mark [6] stands for this setting: rat cerebral cortex membranes, [3H]paroxetine 200 pM, room temperature 120 min, Ki from IC50 by Cheng-Prusoff, read-out: SERT (Ki).

Sequence of dopamine transporter (DAT) (P23977 whole entry): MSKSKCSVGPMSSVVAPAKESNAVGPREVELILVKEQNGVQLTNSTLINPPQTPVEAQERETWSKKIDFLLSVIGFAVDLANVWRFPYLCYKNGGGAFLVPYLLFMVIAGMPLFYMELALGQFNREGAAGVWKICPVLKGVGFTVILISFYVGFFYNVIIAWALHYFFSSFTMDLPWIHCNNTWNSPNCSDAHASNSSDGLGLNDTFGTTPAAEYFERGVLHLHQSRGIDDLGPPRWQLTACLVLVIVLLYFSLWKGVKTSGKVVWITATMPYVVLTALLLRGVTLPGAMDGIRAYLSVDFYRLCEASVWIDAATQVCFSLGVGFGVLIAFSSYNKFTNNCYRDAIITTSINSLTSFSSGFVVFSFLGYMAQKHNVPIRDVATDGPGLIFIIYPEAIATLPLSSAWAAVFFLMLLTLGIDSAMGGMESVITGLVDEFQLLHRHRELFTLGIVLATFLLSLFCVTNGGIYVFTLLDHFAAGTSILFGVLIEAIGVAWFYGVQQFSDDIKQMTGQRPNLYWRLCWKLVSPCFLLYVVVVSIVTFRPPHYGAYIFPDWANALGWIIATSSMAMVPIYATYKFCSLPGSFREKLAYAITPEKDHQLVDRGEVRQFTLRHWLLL
T1 sequence (Q63380 1-617): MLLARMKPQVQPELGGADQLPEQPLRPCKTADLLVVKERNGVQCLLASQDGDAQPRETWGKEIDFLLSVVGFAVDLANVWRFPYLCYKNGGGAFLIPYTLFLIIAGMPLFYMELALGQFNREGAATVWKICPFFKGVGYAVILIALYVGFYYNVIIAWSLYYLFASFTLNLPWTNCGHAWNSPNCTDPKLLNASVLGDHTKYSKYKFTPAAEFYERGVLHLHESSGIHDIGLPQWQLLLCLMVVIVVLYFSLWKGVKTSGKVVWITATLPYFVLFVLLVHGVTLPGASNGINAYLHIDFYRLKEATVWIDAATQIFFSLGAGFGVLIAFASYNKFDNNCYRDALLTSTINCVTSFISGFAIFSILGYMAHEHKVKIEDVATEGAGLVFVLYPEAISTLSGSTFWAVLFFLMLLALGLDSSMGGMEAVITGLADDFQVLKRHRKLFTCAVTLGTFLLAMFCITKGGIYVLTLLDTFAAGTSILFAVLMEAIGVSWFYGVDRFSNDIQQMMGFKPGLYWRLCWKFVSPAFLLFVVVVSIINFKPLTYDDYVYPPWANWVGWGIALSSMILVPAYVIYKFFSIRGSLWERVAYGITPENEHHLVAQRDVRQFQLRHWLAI
T2 sequence (P31652 whole entry): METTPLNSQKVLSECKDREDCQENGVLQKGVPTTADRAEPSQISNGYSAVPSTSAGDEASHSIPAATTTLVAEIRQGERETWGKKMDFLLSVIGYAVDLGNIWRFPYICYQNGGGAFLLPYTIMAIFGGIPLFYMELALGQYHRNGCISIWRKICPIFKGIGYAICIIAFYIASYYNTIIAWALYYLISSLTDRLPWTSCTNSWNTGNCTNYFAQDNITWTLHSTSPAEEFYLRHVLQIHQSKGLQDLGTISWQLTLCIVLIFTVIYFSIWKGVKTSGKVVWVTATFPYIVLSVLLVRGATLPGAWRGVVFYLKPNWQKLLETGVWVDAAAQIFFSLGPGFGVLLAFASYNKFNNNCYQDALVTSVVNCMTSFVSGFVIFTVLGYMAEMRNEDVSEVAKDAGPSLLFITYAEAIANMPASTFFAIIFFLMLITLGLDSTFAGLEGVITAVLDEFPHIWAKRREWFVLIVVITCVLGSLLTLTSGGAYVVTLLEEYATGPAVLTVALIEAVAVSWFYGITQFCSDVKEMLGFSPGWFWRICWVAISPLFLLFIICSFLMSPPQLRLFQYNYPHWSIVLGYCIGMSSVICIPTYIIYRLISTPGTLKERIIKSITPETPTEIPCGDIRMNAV

As usually defined, the Ki is a measure of affinity in units of concentration, obtained from inhibition or displacement. In the case of `COC(=O)C1C(c2ccc(-c3cccc(O)c3)cc2)CC2CCC1N2C` (centres unmarked) [Compound 2], the Ki was found to be 155 nM in data set [1] (setting [4]) and 15.2 nM in data set [2] (setting [5]).

`COC(=O)C1C(c2ccc(-c3ccccc3OC)cc2)CC2CCC1N2C` (centres unmarked) [Compound 3a]: the values for the Ki in data set [1] (setting [4]) and in data set [2] (setting [5]) were over 10000 nM and 357 nM, respectively.

Turning to `COC(=O)C1C(c2ccc(-c3cccc(OC)c3)cc2)CC2CCC1N2C` (centres unmarked) [Compound 3b], the figures for the Ki in data set [1] (setting [4]), in data set [2] (setting [5]) and in data set [3] (setting [6]) were over 3000 nM, 58.7 nM and 1.89 nM, respectively. In addition, the “Selectivity for SERT” value in data set [3] is reported as 31.1.

Consider `COC(=O)C1C(c2ccc(-c3ccc(OC)cc3)cc2)CC2CCC1N2C` (centres unmarked) [Compound 3c], for which the inhibition constant Ki was determined as 352 nM in data set [1] (setting [4]), 13.2 nM in data set [2] (setting [5]) and 32 nM in data set [3] (setting [6]). Further, the “Selectivity for SERT” value in data set [3] is listed as 0.41.

Take `COC(=O)C1C(c2ccc(-c3ccccc3[N+](=O)[O-])cc2)CC2CCC1N2C` (centres unmarked) [Compound 4a]: in data set [1] (setting [4]), the inhibition constant Ki was over 3000 nM. Also, the “Selectivity for SERT” value in data set [3] worked out at 1.

For the molecule `COC(=O)C1C(c2ccc(-c3cccc([N+](=O)[O-])c3)cc2)CC2CCC1N2C` (centres unmarked) [Compound 4b], the Ki is 963 nM in data set [1] (setting [4]), 9.54 nM in data set [2] (setting [5]) and 0.8 nM in data set [3] (setting [6]). Moreover, in data set [3], the “Selectivity for SERT” value was 11.9.

As for `COC(=O)C1C(c2ccc(-c3ccc([N+](=O)[O-])cc3)cc2)CC2CCC1N2C` (centres unmarked) [Compound 4c], the Ki in data set [1] (setting [4]) was determined as 370 nM; in data set [2] (setting [5]), 5.1 nM; in data set [3] (setting [6]) it was 29.7 nM. For the same molecule, in data set [3], the “Selectivity for SERT” value was determined as 0.17.

Consider `COC(=O)C1C(c2ccc(-c3cccc(N)c3)cc2)CC2CCC1N2C` (centres unmarked) [Compound 5], for which the Ki in data set [1] (setting [4]) was 661 nM; in data set [2] (setting [5]) it was 24.2 nM.

For `COC(=O)C1C(c2ccc(-c3ccccc3C(C)=O)cc2)CC2CCC1N2C` (centres unmarked) [Compound 6a], the Ki in data set [1] (setting [4]) is over 20000 nM; in data set [2] (setting [5]), 1020 nM.

Regarding `COC(=O)C1C(c2ccc(-c3cccc(C(C)=O)c3)cc2)CC2CCC1N2C` (centres unmarked) [Compound 6b], the inhibition constant (Ki) is over 50000 nM in data set [1] (setting [4]) and 12.4 nM in data set [2] (setting [5]).

In the case of `COC(=O)C1C(c2ccc(-c3ccc(C(C)=O)cc3)cc2)CC2CCC1N2C` (centres unmarked) [Compound 6c], the Ki in data set [1] (setting [4]) came out at 754 nM; in data set [2] (setting [5]), 19.1 nM.

As for `COC(=O)[C@H]1[C@@H](c2ccc(-c3cccc(CNC(=O)OC(C)(C)C)c3)cc2)C[C@@H]2CC[C@H]1N2C` [Compound 7, 3β-[3′-(tert-Butoxycarbonylaminomethyl)biphenyl-4-yl]-Tropane-2β-carboxylic acid methyl ester], the Ki in data set [1] (setting [4]) was over 30000 nM; in data set [2], over 10000 nM; in data set [3] (read-out: SERT (Ki)) it was over 10000 nM. The “Selectivity for SERT” value in data set [3] is 1.

Regarding `COC(=O)C1C(c2ccc(-c3cccc(C(=O)c4ccccc4)c3)cc2)CC2CCC1N2C` (centres unmarked) [Compound 8], the Ki in data set [1] (setting [4]), in data set [2] and in data set [3] (read-out: SERT (Ki)) was over 3000 nM in each case. Moreover, in data set [3], the “Selectivity for SERT” value is reported as 1.

Turning to `COC(=O)C1C(c2ccc(-c3cccc(C4OCCO4)c3)cc2)CC2CCC1N2C` (centres unmarked) [Compound 9], the Ki in data set [1] (setting [4]) was over 30000 nM; in data set [2], 363 nM; in data set [3] (read-out: SERT (Ki)), over 10000 nM. In addition, the “Selectivity for SERT” value in data set [3] stood at 0.03.

As a reminder, the melting point is the temperature, or range, at which the solid turns liquid. For `COC(=O)C1C2CCC(CC1c1ccc(-c3cccc(OC)c3)cc1)N2` (stereo not drawn) [Compound 10, 3β-(3′-methoxybiphenyl-4-yl)nortropane-2β-carboxylic acid methyl ester], the melting point is 102 to 104 °C. Also, in data set [1] (setting [4]), the Ki is 295 nM. The same molecule displayed a Ki in data set [2] of 710 nM. The “Selectivity for SERT” value in data set [3] is recorded as 306. Also, in data set [3] (read-out: SERT (Ki)), the Ki was 2.32 nM.

As to `COC(=O)[C@H]1[C@@H](c2ccc(-c3cccs3)cc2)C[C@@H]2CC[C@H]1N2C` [Compound 11, 3β-(4-Thiophen-2-yl-phenyl)tropane-2β-carboxylic acid methyl ester], the inhibition constant Ki in data set [1] was determined as 158 nM; in data set [2] it was 52 nM; in data set [3], 0.15 nM. The “Selectivity for SERT” value in data set [3] is on record as 346.

With `COC(=O)[C@H]1[C@@H](c2ccc(-c3ccsc3)cc2)C[C@@H]2CC[C@H]1N2C` [Compound 12, 3β-(4-Thiophen-3-yl-phenyl)tropane-2β-carboxylic acid methyl ester], the figures for the Ki in data set [1], in data set [2] and in data set [3] were 189 nM, 12.1 nM and 0.17 nM, respectively. Moreover, the “Selectivity for SERT” value in data set [3] came out at 711.

With `COC(=O)C1C(c2ccc(-c3ccco3)cc2)CC2CCC1N2C` (centres unmarked) [Compound 13], the Ki in data set [1] came out at 1400 nM; in data set [2] (setting [5]), 7.14 nM; in data set [3] (setting [6]) it was 1.13 nM. In addition, the “Selectivity for SERT” value in data set [3] is 6.32.

As for `COC(=O)[C@H]1[C@@H](c2ccc(-c3nccs3)cc2)C[C@@H]2CC[C@H]1N2C` [Compound 14, 3β-(4-Thiazol-2-yl-phenyl)tropane-2β-carboxylic acid methyl ester], the results for the Ki in data set [1], in data set [2] and in data set [3] were over 10000 nM, 520 nM and 1.67 nM, respectively. Further, the “Selectivity for SERT” value in data set [3] turned out to be 310.

Take `COC(=O)C1C(c2ccc(-c3ccccn3)cc2)CC2CCC1N2C` (centres unmarked) [Compound 15]: the Ki was at least 10000 nM in data set [1] (setting [4]), 44 nM in data set [2] (setting [5]) and 161 nM in data set [3] (setting [6]). In addition, the “Selectivity for SERT” value in data set [3] turned out to be 0.27.

`COC(=O)C1C(c2ccc(-c3cccnc3)cc2)CC2CCC1N2C` (centres unmarked) [Compound 16]: the Ki in data set [1] (setting [4]) is 1410 nM; in data set [2], 26.5 nM; in data set [3] (setting [6]), 3.54 nM. Moreover, the “Selectivity for SERT” value in data set [3] worked out at 7.3.

Turning to `COC(=O)C1C2CCC(CC1c1ccc(-c3cncc(OC)c3)cc1)N2` (stereo not drawn) [Compound 18, 3β-[4-(5′-Methoxypyridin-3-yl)-phenyl]nortropane-2β-Carboxylic Acid Methyl Ester], the Ki in data set [1] (setting [4]) amounted to 1590 nM; in data set [2], 587 nM; in data set [3] (read-out: SERT (Ki)) it was 3.91 nM. The “Selectivity for SERT” value in data set [3] was 150.

With `COC(=O)C1C(c2ccc(-c3cncnc3)cc2)CC2CCC1N2C` (centres unmarked) [Compound 19], the Ki in data set [1] (setting [4]) was over 10000 nM; in data set [2] (setting [5]), 344 nM; in data set [3] (setting [6]), 33.1 nM. Also, the “Selectivity for SERT” value in data set [3] came out at 10.4.

Take `COC(=O)C1C(c2ccc(-c3cnc4ccccc4c3)cc2)CC2CCC1N2C` (centres unmarked) [Compound 20]: the Ki in data set [1] (setting [4]) was over 3000 nM; in data set [2] (setting [5]), 59.8 nM; in data set [3] (setting [6]), 20 nM. Moreover, in data set [3], the “Selectivity for SERT” value is 3.0.

Turning to `COC(=O)C1C(c2ccc(-c3cncc4ccccc34)cc2)CC2CCC1N2C` (centres unmarked) [Compound 21], the Ki in data set [1] (setting [4]) was over 10000 nM; in data set [2], over 30000 nM. The “Selectivity for SERT” value in data set [3] is on record as 10.
